From ChEMBL document CHEMBL1201862, “PubChem BioAssay data set” (2004)
Activity calls are given as the source filed them.

Experiments:
[1] = molecular target: T1, Short transient receptor potential channel 4 (Mus musculus, UniProt Q9QUQ5); experiment: mouse TRPC4 channel inhibitors, dose response, cell-based, HEK293 TRPC4/mu-opioid, Fluo-4 calcium (AID 434942); type: functional;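 note: potency of inhibitors blocking the TRPC4 calcium response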
T1 sequence (Q9QUQ5 whole entry): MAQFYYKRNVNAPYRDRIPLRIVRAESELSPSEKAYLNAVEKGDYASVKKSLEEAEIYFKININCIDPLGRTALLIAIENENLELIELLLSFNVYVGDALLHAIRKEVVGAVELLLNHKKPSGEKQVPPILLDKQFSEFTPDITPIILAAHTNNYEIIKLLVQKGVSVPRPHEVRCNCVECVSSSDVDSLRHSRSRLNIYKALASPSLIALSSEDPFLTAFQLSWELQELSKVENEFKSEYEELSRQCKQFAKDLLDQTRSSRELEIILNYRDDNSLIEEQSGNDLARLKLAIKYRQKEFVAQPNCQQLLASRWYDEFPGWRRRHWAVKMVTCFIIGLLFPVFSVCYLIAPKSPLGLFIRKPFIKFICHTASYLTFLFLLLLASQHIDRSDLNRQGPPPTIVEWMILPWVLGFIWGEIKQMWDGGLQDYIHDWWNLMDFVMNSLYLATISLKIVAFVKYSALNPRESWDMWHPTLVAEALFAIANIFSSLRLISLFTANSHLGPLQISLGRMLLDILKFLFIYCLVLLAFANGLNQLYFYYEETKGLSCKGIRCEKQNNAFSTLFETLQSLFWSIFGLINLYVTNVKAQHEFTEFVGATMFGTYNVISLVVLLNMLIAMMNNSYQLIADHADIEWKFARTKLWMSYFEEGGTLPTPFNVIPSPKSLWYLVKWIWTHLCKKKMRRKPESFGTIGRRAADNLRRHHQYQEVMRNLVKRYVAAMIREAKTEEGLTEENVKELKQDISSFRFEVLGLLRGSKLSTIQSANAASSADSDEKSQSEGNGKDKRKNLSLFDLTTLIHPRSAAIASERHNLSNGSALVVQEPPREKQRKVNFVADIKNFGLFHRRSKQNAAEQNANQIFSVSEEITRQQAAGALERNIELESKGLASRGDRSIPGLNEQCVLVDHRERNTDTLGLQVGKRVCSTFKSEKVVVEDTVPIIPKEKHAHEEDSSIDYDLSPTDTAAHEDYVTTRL

[2] = molecular target: T2, Corticotropin-releasing factor receptor 2/Corticotropin-releasing factor-binding protein (Homo sapiens, UniProt P24387+Q13324); experiment: Dose Response confirmation of uHTS hits for small molecule antagonists of the CRF-binding protein and CRF-R2 receptor complex.; type: functional; details: read-out: IC50_Mean
T2 sequence (Q13324 whole entry): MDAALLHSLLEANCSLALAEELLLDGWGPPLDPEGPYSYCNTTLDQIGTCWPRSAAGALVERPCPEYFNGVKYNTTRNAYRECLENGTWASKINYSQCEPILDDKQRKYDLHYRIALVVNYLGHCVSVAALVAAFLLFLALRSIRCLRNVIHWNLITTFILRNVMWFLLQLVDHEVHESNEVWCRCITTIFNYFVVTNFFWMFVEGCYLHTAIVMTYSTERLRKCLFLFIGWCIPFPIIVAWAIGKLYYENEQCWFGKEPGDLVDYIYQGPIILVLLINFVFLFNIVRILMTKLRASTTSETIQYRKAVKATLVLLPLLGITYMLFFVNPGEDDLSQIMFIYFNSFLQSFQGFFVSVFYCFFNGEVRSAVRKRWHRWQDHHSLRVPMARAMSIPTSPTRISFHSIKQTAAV
T2 sequence (P24387 whole entry): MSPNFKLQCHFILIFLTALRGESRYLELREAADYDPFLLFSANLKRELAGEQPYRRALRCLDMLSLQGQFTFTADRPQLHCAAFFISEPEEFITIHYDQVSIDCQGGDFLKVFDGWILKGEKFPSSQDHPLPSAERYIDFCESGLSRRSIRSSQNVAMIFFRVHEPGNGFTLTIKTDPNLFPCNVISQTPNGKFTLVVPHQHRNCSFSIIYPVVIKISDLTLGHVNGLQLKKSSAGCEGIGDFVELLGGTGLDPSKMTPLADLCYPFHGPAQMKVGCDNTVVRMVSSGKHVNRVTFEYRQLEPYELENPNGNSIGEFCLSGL

[3] = molecular target: T2, Corticotropin-releasing factor receptor 2/Corticotropin-releasing factor-binding protein; experiment: activators of CRF receptor 2 with binding protein – uHTS hits, confirmation (AID 602473); type: functional; details: read-out: EC50_Mean
[4] = molecular target: FAD-linked sulfhydryl oxidase ALR (Homo sapiens, UniProt P55789); experiment: inhibitors of human ALR sulfhydryl oxidase, dose response, biochemical, H2O2 detection, luminescence, cherry-pick (AID 493248)
Leucine aminopeptidase = molecular target: T3, Leucine aminopeptidase (Plasmodium falciparum 3D7, UniProt Q8IL11); experiment: P. falciparum M17LAP inhibitors, primary screen, biochemical, fluorogenic H-Leu-NHMec substrate, 1536-well (AID 1619); type: functional
T3 sequence (Q8IL11 whole entry): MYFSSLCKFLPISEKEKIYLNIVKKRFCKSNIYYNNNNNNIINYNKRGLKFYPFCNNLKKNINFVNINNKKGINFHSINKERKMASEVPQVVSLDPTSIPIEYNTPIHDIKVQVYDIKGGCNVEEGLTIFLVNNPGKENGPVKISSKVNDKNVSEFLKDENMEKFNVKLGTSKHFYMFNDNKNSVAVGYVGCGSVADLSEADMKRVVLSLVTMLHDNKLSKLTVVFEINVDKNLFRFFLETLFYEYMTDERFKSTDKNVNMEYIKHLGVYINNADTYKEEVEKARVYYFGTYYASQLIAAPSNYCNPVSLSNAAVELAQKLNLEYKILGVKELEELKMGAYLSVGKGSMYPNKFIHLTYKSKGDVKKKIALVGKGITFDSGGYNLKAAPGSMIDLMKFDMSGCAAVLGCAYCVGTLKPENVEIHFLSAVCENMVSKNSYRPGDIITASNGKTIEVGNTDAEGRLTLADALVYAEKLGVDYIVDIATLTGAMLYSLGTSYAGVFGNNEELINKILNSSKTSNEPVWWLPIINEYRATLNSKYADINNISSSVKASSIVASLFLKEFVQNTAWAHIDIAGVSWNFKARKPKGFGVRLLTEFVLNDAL

[5] = molecular target: Induced myeloid leukemia cell differentiation protein Mcl-1 (Homo sapiens, UniProt Q07820); type: functional
Genome polyprotein = Genome polyprotein (dengue virus type 2, UniProt P29990); experiment: Dengue-2 NS5 methyltransferase inhibitors, primary screen, biochemical, confirmation dose response (AID 588689); type: functional
Aminopeptidase N = molecular target: T4, Aminopeptidase N (Plasmodium falciparum FcB1/Columbia, UniProt O96935); experiment: P. falciparum M1AAP inhibitors, biochemical, fluorogenic H-Leu-NHMec substrate, 1536-well (AID 1445); set-up: species or system Plasmodium falciparum 3D7, 3D7
T4 sequence (O96935 whole entry): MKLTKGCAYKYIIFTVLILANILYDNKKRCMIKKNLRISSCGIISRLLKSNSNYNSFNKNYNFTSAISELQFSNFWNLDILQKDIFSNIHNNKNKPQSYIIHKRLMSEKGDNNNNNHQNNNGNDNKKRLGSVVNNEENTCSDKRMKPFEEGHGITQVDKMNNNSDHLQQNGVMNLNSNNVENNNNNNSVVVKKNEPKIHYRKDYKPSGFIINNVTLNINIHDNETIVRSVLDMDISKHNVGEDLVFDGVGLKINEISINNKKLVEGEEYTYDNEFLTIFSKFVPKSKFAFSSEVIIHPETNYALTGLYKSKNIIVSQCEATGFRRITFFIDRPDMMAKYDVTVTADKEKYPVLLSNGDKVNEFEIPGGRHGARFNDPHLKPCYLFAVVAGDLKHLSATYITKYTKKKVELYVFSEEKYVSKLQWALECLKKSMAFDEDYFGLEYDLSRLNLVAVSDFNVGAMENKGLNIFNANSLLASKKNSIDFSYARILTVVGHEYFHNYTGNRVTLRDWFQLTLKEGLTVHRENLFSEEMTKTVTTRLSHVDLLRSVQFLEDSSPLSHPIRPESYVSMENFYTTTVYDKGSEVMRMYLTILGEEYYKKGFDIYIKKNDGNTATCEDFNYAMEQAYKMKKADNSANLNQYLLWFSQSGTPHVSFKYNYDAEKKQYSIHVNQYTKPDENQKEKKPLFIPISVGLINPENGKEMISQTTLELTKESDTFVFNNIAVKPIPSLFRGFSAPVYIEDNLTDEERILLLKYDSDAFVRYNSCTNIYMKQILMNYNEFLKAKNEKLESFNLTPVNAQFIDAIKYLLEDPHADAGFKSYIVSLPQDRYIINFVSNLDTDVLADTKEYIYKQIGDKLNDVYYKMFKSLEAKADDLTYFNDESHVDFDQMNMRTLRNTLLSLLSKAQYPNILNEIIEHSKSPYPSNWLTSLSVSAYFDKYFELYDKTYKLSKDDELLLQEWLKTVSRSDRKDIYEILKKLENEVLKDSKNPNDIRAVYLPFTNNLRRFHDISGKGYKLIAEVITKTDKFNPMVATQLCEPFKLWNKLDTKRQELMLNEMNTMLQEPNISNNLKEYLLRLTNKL

Nonstructural protein 1 = Nonstructural protein 1 (Influenza A virus, UniProt Q194T2); type: functional, Influenza A virus (A/California/07/2009(H1N1))
[6] = molecular target: T5, Rac GTPase-activating protein 1 (Homo sapiens, UniProt Q9H0H5); experiment: MgcRacGAP GTPase-activating activity inhibitors, confirmation, biochemical, ADP Hunter fluorescence, primary and confirmatory (AID 624330); type: functional
T5 sequence (Q9H0H5 whole entry): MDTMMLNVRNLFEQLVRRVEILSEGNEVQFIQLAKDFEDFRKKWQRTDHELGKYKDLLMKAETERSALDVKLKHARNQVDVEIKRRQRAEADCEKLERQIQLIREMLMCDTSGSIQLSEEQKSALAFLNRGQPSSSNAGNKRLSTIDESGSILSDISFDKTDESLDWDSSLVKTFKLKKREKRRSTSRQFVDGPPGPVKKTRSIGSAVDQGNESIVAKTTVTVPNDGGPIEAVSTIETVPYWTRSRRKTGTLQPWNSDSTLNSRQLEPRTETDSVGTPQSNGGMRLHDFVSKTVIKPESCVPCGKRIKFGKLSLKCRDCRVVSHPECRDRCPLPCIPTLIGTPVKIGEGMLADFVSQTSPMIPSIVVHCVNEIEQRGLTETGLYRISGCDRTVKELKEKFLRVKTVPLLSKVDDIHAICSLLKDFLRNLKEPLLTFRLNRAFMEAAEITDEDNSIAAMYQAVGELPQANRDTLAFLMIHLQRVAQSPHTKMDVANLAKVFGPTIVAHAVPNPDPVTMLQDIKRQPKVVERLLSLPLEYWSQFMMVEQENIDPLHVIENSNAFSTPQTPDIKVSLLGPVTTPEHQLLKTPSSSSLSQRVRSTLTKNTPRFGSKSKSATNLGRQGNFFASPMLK

Chain of FAD-linked sulfhydryl oxidase ALR (P55789 whole entry): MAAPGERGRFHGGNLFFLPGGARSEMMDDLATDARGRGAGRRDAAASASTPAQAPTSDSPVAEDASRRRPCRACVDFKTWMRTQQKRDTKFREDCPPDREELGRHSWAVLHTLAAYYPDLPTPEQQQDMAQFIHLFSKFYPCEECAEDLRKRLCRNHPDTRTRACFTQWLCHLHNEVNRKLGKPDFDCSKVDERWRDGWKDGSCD
Chain of Nonstructural protein 1 (Q194T2 whole entry): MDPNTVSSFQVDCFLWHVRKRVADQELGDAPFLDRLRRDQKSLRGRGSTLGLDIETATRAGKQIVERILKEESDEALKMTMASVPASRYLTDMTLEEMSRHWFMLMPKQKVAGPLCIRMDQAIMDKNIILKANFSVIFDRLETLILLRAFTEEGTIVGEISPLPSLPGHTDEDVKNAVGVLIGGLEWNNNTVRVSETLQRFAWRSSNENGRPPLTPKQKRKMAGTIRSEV
Chain of Induced myeloid leukemia cell differentiation protein Mcl-1 (Q07820 whole entry): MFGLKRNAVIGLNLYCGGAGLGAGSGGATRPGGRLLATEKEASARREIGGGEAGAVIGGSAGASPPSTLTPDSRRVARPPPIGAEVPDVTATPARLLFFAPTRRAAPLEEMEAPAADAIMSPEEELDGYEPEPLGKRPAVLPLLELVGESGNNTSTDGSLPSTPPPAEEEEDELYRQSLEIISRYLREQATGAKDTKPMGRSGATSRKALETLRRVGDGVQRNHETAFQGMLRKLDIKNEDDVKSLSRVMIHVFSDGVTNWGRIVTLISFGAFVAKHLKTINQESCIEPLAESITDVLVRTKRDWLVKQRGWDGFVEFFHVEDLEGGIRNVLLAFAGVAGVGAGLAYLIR
Chain of Genome polyprotein (P29990 2492-3391 limits assumed): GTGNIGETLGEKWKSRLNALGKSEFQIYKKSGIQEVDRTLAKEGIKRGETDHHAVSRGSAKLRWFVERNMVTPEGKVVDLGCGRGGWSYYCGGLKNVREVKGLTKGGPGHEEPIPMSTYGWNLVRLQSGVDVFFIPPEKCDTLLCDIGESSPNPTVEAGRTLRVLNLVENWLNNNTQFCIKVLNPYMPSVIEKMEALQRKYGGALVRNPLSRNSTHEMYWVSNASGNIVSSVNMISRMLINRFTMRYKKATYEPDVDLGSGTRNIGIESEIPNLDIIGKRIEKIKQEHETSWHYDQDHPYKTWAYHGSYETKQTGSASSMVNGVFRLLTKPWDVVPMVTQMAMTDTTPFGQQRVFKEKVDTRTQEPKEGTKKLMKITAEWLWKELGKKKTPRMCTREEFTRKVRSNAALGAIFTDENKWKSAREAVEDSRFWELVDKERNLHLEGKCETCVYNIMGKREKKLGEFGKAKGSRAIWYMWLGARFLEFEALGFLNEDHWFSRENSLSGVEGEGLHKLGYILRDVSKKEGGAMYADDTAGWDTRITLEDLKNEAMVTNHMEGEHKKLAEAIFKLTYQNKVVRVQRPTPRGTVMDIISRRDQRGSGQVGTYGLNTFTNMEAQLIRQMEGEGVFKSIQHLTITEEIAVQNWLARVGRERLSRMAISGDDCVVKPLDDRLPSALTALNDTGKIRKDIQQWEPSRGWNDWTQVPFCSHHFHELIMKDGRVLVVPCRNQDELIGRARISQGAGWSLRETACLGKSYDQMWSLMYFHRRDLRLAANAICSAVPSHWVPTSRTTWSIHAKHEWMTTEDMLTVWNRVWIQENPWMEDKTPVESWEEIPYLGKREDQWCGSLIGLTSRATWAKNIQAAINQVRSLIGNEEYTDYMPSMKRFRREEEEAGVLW

| Compound | EC50 [1] | AC50 [4] | other results |
| --- | --- | --- | --- |
| COc1ccccc1N(C(=O)c1snc(C(N)=O)c1N)C(C(=O)NCc1ccccc1)c1ccc(C)o1 (configuration not stated) | 0.944 µM (active) |  |  |
| c1ccc2c(c1)nnn2-c1ncnc2sc3c(c12)CCCC3 | 6.68 µM (active) |  | IC50 [2]: > 47.1 µM (inactive); EC50 [3]: > 53 µM (inactive) |
| CCc1cc(C(=O)c2ccc(OC)cc2)c(NC(=O)CC(C)(C)CC(=O)O)s1 |  | 4.26 µM (active) |  |
| CCN(CC)c1ccc(NC(=O)CN2CCN(CC(=O)Nc3ccccc3F)CC2)cc1 |  | 1.18 µM (active) |  |
| COc1ccc(NC(=S)NNc2ccc(S(=O)(=O)Nc3ccccc3C(=O)O)cc2[N+](=O)[O-])cc1 |  |  | IC50 (Leucine aminopeptidase): 4.33 µM (active); IC50 [5]: 3.37 µM (not active); IC50 (Genome polyprotein): 15.8 µM (active); IC50 (Aminopeptidase N): 4.17 µM (active); IC50 (Nonstructural protein 1): 31.7 µM (active) |
| CC(NC(=O)c1cccc(N(C)C)c1)c1ccc(-n2ccnc2)cc1 (configuration not stated) |  | 9.59 µM (active) |  |
| O=C(Nc1ccc(O)cc1)c1ccc(C(=O)c2ccccc2)o1 |  | 2.25 µM (active) | IC50 [6]: 19.5 µM (active) |
| CC(CN(C)C)CN1c2ccccc2Sc2ccccc21 (configuration not stated) |  | 1.25 µM (active) |  |
| COc1ccccc1CNCc1ccc(OC)c2ccccc12 | 5.31 µM (active) |  |  |
| C/C(=N/NS(=O)(=O)c1ccc(Br)cc1)c1ccc(C)o1 |  | 15.4 µM (active) |  |
